What all share (assay type): cell-based
The test system of experiment [1] is genotype 1a stable HCV replicon (H77 strain) in Huh-7-derived cells. The experiment in a line: Stable subgenomic HCV replicon EC50, genotype 1a (Renilla luciferase). The conditions noted are these: Hepatitis C virus, stable replicon genotype 1a, 72 h, read-out: EC50 1A RLUC. As to the method: (§1) Antiviral potency (EC50) was determined in both stable subgenomic HCV replicon cell lines and transient-transfected HCV replicon cells. The term half maximal effective concentration (EC50) refers to the concentration of a drug which induces a response halfway between the baseline and maximum after the exposure time specified below.
(§2) Stable subgenomic HCV replicons for genotype 1a, 1 b, 2a, 3a, and 4a were established in Huh-7-derived cells as described by Lohmann et al (Lohmann V, Korner F, Koch J, et al Replication of subgenomic hepatitis C virus RNAs in a hepatoma cell line. Science 1999; 285:119-3). Each stable cell line contains a bicistronic HCV replicon that encodes a humanized Renilla luciferase (hRLuc) reporter gene fused to a selectable neomycin-resistance gene, followed by an EMCV IRES and the NS3-NS5B coding region of HCV. […] Luciferase activity was measured as a marker for intracellular HCV replication levels.
(§3) The genotype 1a stable replicon was derived from the H77 HCV strain and contained adaptive mutations P1496L and S2204I. The genotype 1 b stable replicon was derived from the Cont HCV strain and contained adaptive mutations E1202G, T1280I, and K1846T. […] The genotype 3a stable replicon was derived from the S52 HCV strain and contained adaptive mutations P1121 L, A1198T and S2210I (equivalent to S2204I in genotype 1). The genotype 4a stable replicon was derived from the ED43 HCV strain and contained adaptive mutations Q1691R and S2204I. All replicon cell lines were propagated in Huh-7-derived cells and maintained in Dulbecco's modified Eagle's Medium (DMEM) supplemented with 10% fetal bovine serum (FBS) and 0.5 mg/mL G418.
(§4) To perform EC50 assays, cells from each HCV replicon were dispensed into 384-well plates. Compounds were dissolved in DMSO at a concentration of 10 mM and diluted in DMSO using an automated pipetting instrument. Three-fold serially diluted compounds were directly added to the cells using an automated instrument. […] Seventy-two hours later, cells were lysed and Renilla luciferase activity were quantified as recommended by the manufacturer (Promega-Madison, Wis.). Non-linear regression was performed to calculate EC50 values.

Experiment [2] deals with genotype 1b stable HCV replicon in Huh-7-derived cells. The experiment in a line: Stable subgenomic HCV replicon EC50, genotype 1b (Renilla luciferase). The note with it: Hepatitis C virus, stable replicon genotype 1b, 72 h, read-out: EC50 1B RLUC. How it is done:
as §1, §2, §3, §4
Background: In antiviral work, replicon cells carry a viral genome segment that copies itself.

Experiment [3] concerns genotype 2a stable HCV replicon (JFH-1 strain) in Huh-7-derived cells. The experiment can be described thus: Stable subgenomic HCV replicon EC50, genotype 2a (Renilla luciferase). The conditions noted are these: Hepatitis C virus, stable replicon genotype 2a, 72 h, read-out: EC50 2A RLUC. As to the method: as §1, §2, §3, §4
Experiment [4] deals with genotype 3a transient HCV replicon (S52 strain) in Huh-7-derived cells. The experiment can be described thus: Transient-transfected HCV replicon EC50, genotype 3a wild type. The conditions noted are these: Hepatitis C virus; transient-transfected replicon genotype 3a wild type, 72 h; read-out: EC50 3A WT.
The subject of experiment [5] is genotype 1a (H77) wild-type transient HCV replicon in Huh-7-derived cells. The experiment in a line: Transient-transfected HCV replicon EC50, genotype 1a wild type. The conditions noted are these: Hepatitis C virus; transient-transfected replicon genotype 1a wild type, 72 h; read-out: EC50 1A WT.
Experiment [6] relates to genotype 3a stable HCV replicon (S52 strain) in Huh-7-derived cells. The experiment in a line: Stable subgenomic HCV replicon EC50, genotype 3a (Renilla luciferase). The conditions noted are these: Hepatitis C virus, 72 h, read-out: EC50 3A RLUC. How it is done:
as §1, §2, §3, §4

In experiment [7] the test system is genotype 4a stable HCV replicon (ED43 strain) in Huh-7-derived cells. The experiment can be described thus: Stable subgenomic HCV replicon EC50, genotype 4a (Renilla luciferase). The note with it: Hepatitis C virus, 72 h, read-out: EC50 4A RLUC. As to the method:
as §1, §2, §3, §4

The subject of experiment [8] is genotype 1b transient HCV replicon, NS3/4a protease inhibitor resistant variant D168A, in Huh-7-derived cells. The experiment can be described thus: Transient-transfected HCV replicon EC50, genotype 1b D168A. The note with it: Hepatitis C virus, 72 h, read-out: EC50 1B D168A.

The EC50 is the concentration at which the effect is half-maximal. With `CC[C@@H]1[C@@H]2CN(C(=O)[C@H](C(C)(C)C)NC(=O)O[C@]3(C)CCC[C@H]3CCCCCc3nc4ccc(OC)cc4nc3O2)[C@@H]1C(=O)N[C@]1(C(=O)NS(=O)(=O)C2(C)CC2)C[C@H]1CC(F)F` [Example 41, (3aR,7S,10S,11S,12R,24aR)-7-tert-butyl-N-[(1R,2S)-2-(2,2-difluoroethyl)-1-{[(1-methylcyclopropyl)sulfonyl]carbamoyl}cyclopropyl]-11-ethyl-16-methoxy-3a-methyl-5,8-dioxo-1,2,3,3a,5,6,7,8,11,12,20,21,22,23,24,24a-hexadecahydro-10H-9,12-methanocyclopenta[18,19][1,10,3,6]dioxadiazacyclononadecino[11,12-b]quinoxaline-10-carboxamide], the EC50 in experiment [1] amounted to 0.135 µM; in experiment [2], 0.142 µM; in experiment [3], 0.106 µM; in experiment [4], 0.539 µM; in experiment [5], 0.164 µM.

As to `COc1ccc2nc3c(nc2c1)O[C@H]1CN(C(=O)[C@H](C(C)(C)C)NC(=O)O[C@@H]2C[C@H]2CCCCC3F)[C@H](C(=O)N[C@]2(C(=O)NS(=O)(=O)C3(C)CC3)C[C@H]2C(F)F)[C@@H]1C` (stereo partly drawn) [Example 47, (1aR,5S,8S,9S,10R,22aR)-5-tert-butyl-N-[(1R,2R)-2-(difluoromethyl)-1-{[(1-methylcyclopropyl)sulfonyl]carbamoyl}cyclopropyl]-18-fluoro-14-methoxy-9-methyl-3,6-dioxo-1,1a,3,4,5,6,9,10,18,19,20,21,22,22a-tetradecahydro-8H-7,10-methanocyclopropa[18,19][1,10,3,6]dioxadiazacyclononadecino[11,12-b]quinoxaline-8-carboxamide], the concentration giving a half-maximal response (EC50) in experiment [1] amounted to 0.0038 µM; in experiment [2], 0.0036 µM; in experiment [3], 0.012 µM; in experiment [6] it was 0.058 µM; in experiment [7], 0.0042 µM; in experiment [4], 0.017 µM. Besides, the figures for the EC50 in experiment [5] and in experiment [8] were 0.0054 µM and 0.012 µM, respectively.

With `CC[C@@H]1[C@@H]2CN(C(=O)[C@H](C(C)(C)C)NC(=O)O[C@@H]3C[C@H]3CC/C=C/C(F)(F)C3Nc4ccc(C#N)cc4N=C3O2)[C@@H]1C(=O)N[C@]1(C(=O)NS(=O)(=O)C2(C)CC2)C[C@H]1C(F)F` (stereo partly drawn) [Example 78, (1aR,5S,8S,9S,10R,19E,22aR)-5-tert-butyl-14-cyano-N-[(1R,2R)-2-(difluoromethyl)-1-{[(1-methylcyclopropyl)sulfonyl]carbamoyl}cyclopropyl]-9-ethyl-18,18-difluoro-3,6-dioxo-1,1a,3,4,5,6,9,10,17,17a,18,21,22,22a-tetradecahydro-8H-7,10-methanocyclopropa[18,19][1,10,3,6]dioxadiazacyclononadecino[11,12-b]quinoxaline-8-carboxamide], the 50% effective concentration (EC50) in experiment [1] worked out at 0.267 µM; in experiment [2] it was 0.394 µM; in experiment [3] it was 0.195 µM; in experiment [6], 1.11 µM; in experiment [7] it was 0.225 µM; in experiment [4], 0.194 µM. The half-maximal effective concentration (EC50) in experiment [5] came to 0.189 µM; in experiment [8], 0.248 µM.

Regarding `C[C@@H]1[C@@H]2CN(C(=O)[C@H](C(C)(C)C)NC(=O)O[C@@H]3C[C@H]3CCCCC(F)(F)c3nc4ccc(Cl)cc4nc3O2)[C@@H]1C(=O)N[C@]1(C(=O)NS(=O)(=O)C2(C)CC2)C[C@H]1C(F)F` [Example 88, (1aR,5S,8S,9S,10R,22aR)-5-tert-butyl-14-chloro-N-[(1R,2R)-2-(difluoromethyl)-1-{[(1-methylcyclopropyl)sulfonyl]carbamoyl}cyclopropyl]-18,18-difluoro-9-methyl-3,6-dioxo-1,1a,3,4,5,6,9,10,18,19,20,21,22,22a-tetradecahydro-8H-7,10-methanocyclopropa[18,19][1,10,3,6]dioxadiazacyclononadecino[11,12-b]quinoxaline-8-carboxamide], the 50% effective concentration (EC50) was found to be 0.0093 µM in experiment [1]; 0.0046 µM in experiment [2]; 0.0027 µM in experiment [3]; 0.105 µM in experiment [6]; 0.0041 µM in experiment [7]; 0.035 µM in experiment [4]. Also, the 50% effective concentration (EC50) was found to be 0.005 µM in experiment [5] and 0.024 µM in experiment [8].
